Assay results published in publication PMC10488055, “Investigation of Potential cGMP-Specific PDE V and Aminopeptidase N Inhibitors of Allium ampeloprasum L. and Its Bioactive Components: Kinetic and Molecular Docking Studies” (International Journal of Molecular Sciences, 2023).
Like-named read-outs stand apart in the source and are kept apart here.

Legend:
Format in all cases: biochemical
aminopeptidase N (APN) = biological target: T1, aminopeptidase N (APN) (Homo sapiens, UniProt P15144); test: Aminopeptidase N (APN) enzyme activity assay with L-p-NA substrate; settings: for inhibition of APN in in vitro enzyme assay: at the highest concentration; for enzymatic activity of APN: treatment with 10 mM, without sample 0.38 U
T1 construct: purchased Sigma-Aldrich
Experimental: Figure 2 Effects of AAE and AAE-derived compounds on APN activity. […] The reaction was started by adding 20 μL enzyme solution (1 mU) and incubated for 60 min at 37 °C. The absorbance of samples were measured at 405 nm to determine the formation of p-nitroaniline. Each value is the mean ± SD of triplicate measurements. * p < 0.05 and ** p < 0.01, compared to each control group (Con). Con, control group treated enzyme only.
The activity of APN was determined according to Melzig et al.. Briefly, the enzyme substrate L-p-NA (2 mM) was dissolved in 50 mM N-(2-hydroxyethyl)piperazine-N’-2ethansulfonic acid (HEPES) buffer (pH 7.4) containing 154 mM NaCl. […] The reaction was started by adding 20 μL enzyme solution (approximately 1 mU in HEPES-buffer) and incubated for 60 min at 37 °C. The samples were measured spectrophotometrically at 405 nm to determine the formation of p-nitroanilmne. APN inhibitory activity (%) = ([Absorbance control without sample − Absorbance control with sample]/Absorbance control without sample) × 100

PDE5 = PDE5 (Homo sapiens, UniProt O76074); test: Kinetic assay (Lineweaver–Burk) on PDE5;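 as to Kcat: pure compound doses in mM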; parameters: Vmax / Kcat: unit of the concentration uncertain; settings: for Kik/Kiv / Ki: PDE5; for Kik/Kiv: ratio according to Yang et al. [27]; for inhibition type against PDE5: from changes of Km and 1/Vmax (Lineweaver–Burk), putative decision system [27]; for Vmax value of PDE5, fold of non-treated group: non-treated 1.039 mU/min = 1.0-fold
Experimental: (§1) Lineweaver–Burk plots were employed to analyze the inhibition of the target enzyme. These plots were represented as 1/velocity (1/V) versus 1/substrate concentration (1/[S]) in the presence or absence of each sample (non-treated (black circle), 10 μg or 1 mM (orange circle), 20 μg or 2 mM (silver circle), 50 μg or 5 mM (yellow circle), and 100 μg or 10 mM (blue circle)) as an inhibitor against PDE5.
(§2) These reactions were conducted in a total volume of 80 μL. by a previously described method. The Michaelis–Menten constant (Km) and maximal velocity (Vmax) were calculated using the x and y intercepts, respectively. […] Additionally, the Kik and Kiv inhibition constants were calculated using previously described methods.

APN = biological target: T2, APN (Homo sapiens, UniProt P15144); test: Kinetic assay (Lineweaver–Burk) on APN; settings: for inhibition type against APN: from Kik/Kiv ratio, new decision system [27]; for Vmax value of APN, fold of non-treated group: non-treated 0.316 mU/min = 1.0-fold
T2 construct: purchased Sigma-Aldrich
Experimental: as §1, with “(1/(S))” for “(1/[S])”, “(blue” for “(orange”, “(green” for “(silver”, “(orange” for “(yellow”, “(purple” for “(blue”, “APN.” for “PDE5.”
as §2

[1] = biological target: cGMP-specific PDE V (PDE5) (Homo sapiens, UniProt O76074); test: cGMP-specific PDE V (PDE5) enzyme activity assay with p-NPPPh substrate; settings: for inhibition rate of PDE5: at the highest concentration (in vitro enzyme assay); for reduction of PDE5 enzymatic activity: range over 1, 2, 5, and 10 mM
Experimental: Following the addition of 10 mM p-NPPPh, the reaction mixture was incubated at 37 °C for 10 min. After the incubation period, the concentration of liberated 4-nitrophenol was determined by measuring its absorbance values at a wavelength of 405 nm using a microplate reader. […] Con, control group treated enzyme only.
The specific substrate used for PDE5 was p-NPPPh, following a previously described method. The enzyme solution was prepared by adding 1 U of PDE5 to a volume of 10 μL in 40 mM Tris-HCl buffer at pH 7.4. The substrate solution (10 mM) was prepared by dissolving the substrate in Tris-HCl buffer at pH 7.4. […] Following the pretreatment, the reaction was initiated and allowed to continue for an additional 10 min at 37 °C upon the addition of 10 mM p-NPPPh in a total reaction volume of 80 μL. Following the incubation period, the absorbance of the mixture was measured at 405 nm using a microplate reader. The enzyme activity was quantified in units, where one unit corresponds to the amount of enzyme needed to hydrolyze 1 micromol of p-NPPPh. The inhibitory activity of PDE5 (%) was calculated by determining the residual activity (U). PDE5 inhibitory activity (%) = ([Residual unit control without sample − Residual unit control with sample]/Residual unit control without sample) × 100

[2] = PDE5 treated with compound 1 (unit uncertain)
[3] = PDE5 treated with compound 2 (unit uncertain)
[4] = PDE5 treated with compound 5 (unit uncertain)
[5] = PDE5 treated with compound 10 (unit uncertain)
[6] = APN treated with compound 10 mM
[7] = APN, calculated by method of ref 27, read-out: Kik
[8] = APN, calculated by method of ref 27, read-out: Kiv

T2 sequence (P15144 whole entry, species assumed): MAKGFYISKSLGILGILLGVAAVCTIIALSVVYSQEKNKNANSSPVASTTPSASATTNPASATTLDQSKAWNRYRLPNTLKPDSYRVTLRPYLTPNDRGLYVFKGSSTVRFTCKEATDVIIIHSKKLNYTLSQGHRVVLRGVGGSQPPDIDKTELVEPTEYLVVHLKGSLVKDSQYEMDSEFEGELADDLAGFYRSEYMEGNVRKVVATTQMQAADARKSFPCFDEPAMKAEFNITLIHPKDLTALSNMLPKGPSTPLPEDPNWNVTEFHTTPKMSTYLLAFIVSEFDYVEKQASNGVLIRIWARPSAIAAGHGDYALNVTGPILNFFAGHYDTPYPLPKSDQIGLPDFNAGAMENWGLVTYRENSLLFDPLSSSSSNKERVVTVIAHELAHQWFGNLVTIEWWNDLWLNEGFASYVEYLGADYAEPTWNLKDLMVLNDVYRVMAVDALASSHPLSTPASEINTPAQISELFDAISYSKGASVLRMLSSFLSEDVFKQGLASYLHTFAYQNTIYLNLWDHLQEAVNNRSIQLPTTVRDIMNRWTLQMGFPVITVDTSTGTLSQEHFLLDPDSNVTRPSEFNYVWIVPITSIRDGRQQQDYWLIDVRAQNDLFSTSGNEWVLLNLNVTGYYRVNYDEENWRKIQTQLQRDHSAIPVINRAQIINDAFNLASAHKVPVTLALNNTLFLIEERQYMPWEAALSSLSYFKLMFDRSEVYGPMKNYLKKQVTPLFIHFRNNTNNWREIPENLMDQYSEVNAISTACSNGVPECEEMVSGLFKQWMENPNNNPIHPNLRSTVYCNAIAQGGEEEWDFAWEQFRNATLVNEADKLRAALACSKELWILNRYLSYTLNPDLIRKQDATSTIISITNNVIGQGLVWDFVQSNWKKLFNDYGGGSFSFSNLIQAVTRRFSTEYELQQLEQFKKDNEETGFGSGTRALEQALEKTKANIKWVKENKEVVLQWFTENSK
T1 sequence (P15144 whole entry, species assumed): as above

| SMILES | inhibition of APN in in vitro enzyme assay (aminopeptidase N (APN)) [%] | enzymatic activity of APN (aminopeptidase N (APN)) [U] | Kcat (PDE5; [2]) [k s^−1] | Vmax (PDE5; [2]) [mU/min] | Kcat (PDE5; [3]) [k s^−1] | Vmax (PDE5; [3]) [mU/min] | Kcat (PDE5; [4]) [k s^−1] | Vmax (PDE5; [4]) [mU/min] | Kcat (PDE5; [5]) [k s^−1] | Vmax (PDE5; [5]) [mU/min] | inhibition type against PDE5 (PDE5) | Kcat (APN; APN treated with compound 1 mM) [s⁻¹] | Vmax (APN; APN treated with compound 1 mM) [mU/min] | Kcat (APN; APN treated with compound 2 mM) [s⁻¹] | Vmax (APN; APN treated with compound 2 mM) [mU/min] | Kcat (APN; APN treated with compound 5 mM) [s⁻¹] | Vmax (APN; APN treated with compound 5 mM) [mU/min] | Kcat (APN; [6]) [s⁻¹] | Vmax (APN; [6]) [mU/min] | Ki (APN; APN, read-out: Ki) [mM] | other results |
| --- | --- | --- | --- | --- | --- | --- | --- | --- | --- | --- | --- | --- | --- | --- | --- | --- | --- | --- | --- | --- | --- |
| C=CCSSCC=C [DADS, diallyl disulfide] | 11 | 0.34 ± 0.02 | 7253 ± 189 | 0.959 ± 0.025 | 6625 ± 159 | 0.876 ± 0.021 | 5905 ± 83 | 0.781 ± 0.011 | 4383 ± 76 | 0.580 ± 0.010 | noncompetitive-type | 394.8 ± 3.7 | 0.318 ± 0.003 | 379.5 ± 7.4 | 0.306 ± 0.006 | 368.8 ± 6.2 | 0.297 ± 0.005 | 364.9 ± 5.0 | 0.294 ± 0.004 | 65.7 | IC50 (aminopeptidase N (APN)): > 10 mM; Kik/Kiv (PDE5): 16.0; Vmax value of PDE5, fold of non-treated group (PDE5; highest concentration): 0.56 fold; inhibition type against APN (APN): uncompetitive-type; Vmax value of APN, fold of non-treated group (APN; highest concentration): 0.93 fold |
| C=CCSSSCC=C [DATS, diallyl trisulfide] | 19 | 0.31 ± 0.02 | 7105 ± 197 | 0.940 ± 0.026 | 6757 ± 242 | 0.894 ± 0.032 | 4955 ± 174 | 0.655 ± 0.023 | 3371 ± 144 | 0.446 ± 0.019 | noncompetitive-type | 368.9 ± 7.4 | 0.297 ± 0.006 | 365.3 ± 6.2 | 0.294 ± 0.005 | 309.2 ± 5.0 | 0.249 ± 0.004 | 285.9 ± 5.0 | 0.230 ± 0.004 | 18.7 | IC50 [1]: 9.49 mM; inhibition rate of PDE5 [1]: 52%; reduction of PDE5 enzymatic activity [1]: 8.34–51.75%; Ki (PDE5): 7.53 mM; Kik/Kiv (PDE5): 17.8; Vmax value of PDE5, fold of non-treated group (PDE5; highest concentration): 0.43 fold; Ki (APN; [7]): 68.5 mM; Ki (APN; [8]): 26.9 mM; Kik/Kiv (APN; APN, ratio according to Yang et al. [27]): 2.5; inhibition type against APN (APN): mixed-type; Km value of APN, fold of non-treated (APN; highest concentration): 1.15 fold; Vmax value of APN, fold of non-treated group (APN; highest concentration): 0.73 fold |
| C/C=C/[S@+]([O-])C[C@H](N)C(=O)O [IA, isoalliin] | 26 | 0.28 ± 0.01 | 6587 ± 159 | 0.871 ± 0.021 | 5489 ± 151 | 0.726 ± 0.020 | 4387 ± 129 | 0.580 ± 0.017 | 4018 ± 114 | 0.531 ± 0.015 | noncompetitive-type | 381.3 ± 6.2 | 0.307 ± 0.005 | 331.6 ± 7.4 | 0.267 ± 0.006 | 298.9 ± 4.9 | 0.241 ± 0.004 | 275.8 ± 3.7 | 0.222 ± 0.003 | 33.1 | IC50 [1]: 8.42 mM; inhibition rate of PDE5 [1]: 51%; reduction of PDE5 enzymatic activity [1]: 17.23–51.41%; Ki (PDE5): 10.8 mM; Kik/Kiv (PDE5): 13.0; Vmax value of PDE5, fold of non-treated group (PDE5; highest concentration): 0.51 fold; Ki (APN; [8]): 23.7 mM; inhibition type against APN (APN): mixed-type; Vmax value of APN, fold of non-treated group (APN; highest concentration): 0.70 fold |
| O=c1c(O)c(-c2ccc(O)cc2)oc2cc(O)cc(O)c12 [KAE, kaempferol] | 29 | 0.27 ± 0.01 | 5076 ± 98 | 0.671 ± 0.013 | 4591 ± 76 | 0.607 ± 0.010 | 2390 ± 121 | 0.316 ± 0.016 | 1228 ± 69 | 0.162 ± 0.009 | uncompetitive-type | 396.3 ± 7.5 | 0.319 ± 0.006 | 352.8 ± 7.4 | 0.284 ± 0.006 | 308.0 ± 5.0 | 0.248 ± 0.004 | 268.5 ± 3.7 | 0.216 ± 0.003 | 11.9 | IC50 (aminopeptidase N (APN)): > 10 mM; Ki (APN; [7]): 42.1 mM; Ki (APN; [8]): 21.7 mM; inhibition type against APN (APN): uncompetitive-type |
| C[S@+]([O-])C[C@H](N)C(=O)O [MT, methiin] | 32 | 0.26 ± 0.02 | 6261 ± 189 | 0.828 ± 0.025 | 5580 ± 159 | 0.738 ± 0.021 | 4007 ± 98 | 0.530 ± 0.013 | 3673 ± 144 | 0.486 ± 0.019 | uncompetitive-type | 367.0 ± 3.7 | 0.296 ± 0.003 | 310.6 ± 6.2 | 0.250 ± 0.005 | 246.8 ± 3.7 | 0.199 ± 0.003 | 218.9 ± 2.5 | 0.176 ± 0.002 | 13.4 | IC50 [1]: 7.56 mM; reduction of PDE5 enzymatic activity [1]: 24.83–53.90%; Ki (PDE5): 21.5 mM; Kik/Kiv (PDE5): 3.2; Km value of PDE5, fold of non-treated (PDE5; highest concentration): 0.74 fold; Vmax value of PDE5, fold of non-treated group (PDE5; highest concentration): 0.47 fold; Ki (APN; [8]): 12.6 mM; inhibition type against APN (APN): noncompetitive-type; Vmax value of APN, fold of non-treated group (APN; highest concentration): 0.56 fold |
